Measurements taken from US6399593B1, “Cyclic regimens using cyclic urea and cyclic amide derivatives” (Wyeth, priority 1999, dated 2002).
pEC50: −log10 of the molar value.

System: T47D cells
Assay: T47D cell proliferation assay (BrdU incorporation)
Assay type: cell-based
Settings: second print headed Table 3, individual studies (Exp 1-3)
Description: The objective of this assay is the determination of progestational and antiprogestational potency by using a cell proliferation assay in T47D cells. A compound's effect on DNA synthesis in T47D cells is measured.
DMEM:F12 (1:1) (GIBCO, BRL) supplemented with 10% (v/v) fetal bovine serum (not heat-inactivated), 100 U/ml penicillin, […], and 2 mM GlutaMax (GIBCO, BRL).
Minimum Essential Medium (MEM) (#51200-038GIBCO, BRL) phenol red-free supplemented with 0.5% charcoal stripped fetal bovine serum, 100 U/ml penicillin, 200 mg/ml streptomycin, and 2 mM GlutaMax (GIBCO, BRL).
Stock T47D cells are maintained in growth medium. For BrdU incorporation assay, cells are plated in 96-well plates (Falcon, Becton Dickinson Labware) at 10,000 cells/well in growth medium. […]
At the end of BrdU labeling, the medium is removed and BrdU incorporation is measured using a cell proliferation ELISA kit (#RPN 250, Amersham Life Science) according to manufacturer's instructions. […] Then 25 μl of 1 M sulfuric acid is added to each well to stop color reaction and optical density is read in a plate reader at 450 nm within 5 min.
Square root-transformed data are used for analysis of variance and nonlinear dose response curve fitting for both agonist and antagonist modes. […] EC50 or IC50 values are calculated from the retransformed values. […]

pEC50: 10.77
SMILES: CC(=O)O[C@]1(C(C)=O)CC[C@H]2[C@@H]3C[C@H](C)C4=CC(=O)CC[C@]4(C)[C@H]3CC[C@@]21C [MPA, medroxyprogesterone acetate]
